Test results reported in US11198900B2, “Nucleic acid-based linkers for detecting and measuring interactions” (Children's Medical Center Corporation, priority 2014, dated 2021).

Legend:
[1] = test system: disulfide bond (var 4-S-S-var 8); test: DNA nanoswitch disulfide bond reduction; conditions: 10 μM TCEP, room temperature (25° C.)
Procedure: This construct was created in 3 steps. 1) Var 4 and a truncated version of var 8 with a 3′ and a 5′ thiol respectively, were reduced in 50 mM TCEP (BondBreaker Thermo Scientific). 2) These two oligonucleotides were linked by a disulfide. 3) The disulfide-bridged oligonucleotides were hybridized onto the DNA nanoswitch. • 1) To reduce the thiols on the oligonucleotides they were incubated in 50 mM TCEP for 1 hour at RT. • 2) Equal volumes of the two oligonucleotide-TCEP mixtures were then combined. The TCEP was removed using a QIAGEN nucleotide-removal kit. The oligonucleotides were then allowed to form disulfides in the absence of reducing agent in PBS for 1 hour before running the products on a precast 4-20% gradient polyacrylamide TBE gel. As the oligonucleotides were different sizes (60 and 30 nt) the appropriate hetero dimer could be easily identified and purified using electroelution as previously described^5. • 3) The var 4-S-S-var 8 was used instead of the normal var 4 and var 8. This was annealed onto the linear M13 backbone at a 1:1 ratio and was added along with the other oligonucleotides at the beginning of the annealing. This yielded loops with a disulfide bridging variable regions 4 and 8.
With these loops in hand we could observe loop opening as a result of TCEP reduction of the disulfide bond. […]

streptavidin [2] = biological target: T1, streptavidin (Streptomyces avidinii, UniProt P22629); test: DNA nanoswitch gel electrophoresis, biotin-streptavidin kinetics (Example 2, FIG. 7 and 8); format: binding; conditions: for dissociation time: 150 mM physiological salt
T1 construct: purchased Rockland
T1 sequence (P22629 25-183): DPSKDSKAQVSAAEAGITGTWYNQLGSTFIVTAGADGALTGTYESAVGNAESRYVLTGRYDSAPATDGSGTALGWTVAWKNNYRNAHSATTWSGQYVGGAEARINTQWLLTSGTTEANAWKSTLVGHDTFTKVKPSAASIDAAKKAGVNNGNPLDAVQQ
Excerpt: FIG. 7. […] (A) The DNA nanoswitch has two distinct states, depending on the binding of a receptor-ligand pair, that can be distinguished by gel electrophoresis, (B) In the presence of excess ligand, a nanoswitch in the bound state will become trapped in the unbound state upon dissociation. […] The amount of looped construct is quantified from the gel to determine the kinetics of dissociation.
FIG. 7D, for example, illustrates the formation of looped constructs having two biotins in the presence of streptavidin (t=0).
Linkers were designed according to protocols for long (2580 bp) and short (600 bp) loops as described herein. […] All other oligos were the same as those used previously. Briefly, looped constructs were made by mixing a long single-stranded DNA (M13mp18, in this case) with over 121 oligos that are complementary along its length. […] The constructs come together by self-assembly with a temperature ramp heating and cooling them.
Recognizing that the nanoswitch conformation informs the receptor-ligand binding state (bound or unbound), and that the conformation can be observed on a gel, an assay to measure bulk interaction kinetics was developed. The assay, conceptually shown in FIG. 7, proceeds as follows: 1) form a looped nucleic acid (DNA) construct that relies on a receptor and a ligand being bound to each other, 2) quench the interaction between the receptor and the ligand, for example, with excess receptor or ligand to prevent rebinding following dissociation, 3) monitor the relative amount of looped construct over time to measure kinetics.
Linear double-stranded DNA constructs 7249 base pairs (bp) in length were self-assembled by combining the single-stranded M13 bacteriophage genome with 121 complementary oligos. (See also Halvorsen K et al., 2011.). Two of the oligos were labeled with single biotins and placed 2580 bp from each other, such that interaction with streptavidin induced the formation of a 2580 bp loop in the structure. […] The entire array of 16 conditions with five time points each plus controls was then run on a single 96 lane agarose gel (FIG. 8).
The gel analysis tool in ImageJ was used to measure the integrated intensity of the band containing looped construct, and this quantity was normalized by the integrated intensity of a reference band in the same lane from a DNA ladder, which was added to the construct prior to starting experiments. Individual time constants for each experimental condition were determined by fitting a single exponential decay to the data using an error weighted least squares fitting.

Neutravidin = Neutravidin (Gallus gallus, UniProt P02701); test: DNA nanoswitch gel electrophoresis, biotin with avidin and Neutravidin; format: binding; conditions: relative to avidin
Neutravidin, sequence (P02701 25-152): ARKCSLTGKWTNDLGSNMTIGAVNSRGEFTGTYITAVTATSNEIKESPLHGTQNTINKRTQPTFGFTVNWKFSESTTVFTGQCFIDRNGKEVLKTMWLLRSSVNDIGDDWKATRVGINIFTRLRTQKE
Procedure: Preparations with avidin and neutravidin were prepared in the same way, but protein concentrations were sometimes altered to enable on-rate measurements over a similar time scale as the streptavidin experiments.

streptavidin [3] = biological target: T1, streptavidin; test: DNA nanoswitch gel electrophoresis, biotin-streptavidin on-rate and off-rate (Example 3); format: binding
Procedure: This construct used biotinylated versions of two oligonucleotides (var 4 and var 8), which were used in 4× molar excess to the scaffold, while all other oligonucleotides were used in a 10× molar excess. […] The final DNA construct was then diluted 100× from its original concentration of ˜16 nM (to 160 pM), and mixed in equal volumes with streptavidin (Rockland) at 6 nM nominal concentration to form the loops, yielding final nominal concentrations of ˜80 pM and 3 nM, respectively.
The 25° C. experiment was performed at room temperature, the 4° C. experiment was performed in a cold room, and the 37° C. and 50° C. experiments were performed using a thermal cycler. […] Actual concentrations used to determine the on-rates were measured using spectrophotometry and a HABA assay to determine streptavidin activity.
Off-rate measurements were performed by forming looped construct as described above, and letting the solution sit for at least 24 hours to allow the system to reach equilibrium. […] The 4° C. condition was done in a refrigerator, the 25° C. sample was done in a water bath, and the 37° C. and 50° C. temperatures were done in a thermal cycler. To run all the samples on a single gel, the quenching times were determined relative to the predetermined gel running time.
The amount of material in each gel band was quantified by analyzing the scanned gel images with the gel analysis tool in the freely available ImageJ software package. Using rectangular regions of interest that just capture the width of the gel bands, this toolbox produces intensity profiles whose area can be measured to quantify the total brightness in each band. We applied the same rectangular window size to each lane within a single gel. In many gels the highest molecular weight band of the added ladder was used as a normalizing reference lane. This relaxed the constraints of pipetting perfectly across all lanes. • 2) All multistate (with 5 bands) gels were analyzed as follows
Error bars were produced based on this analysis, and all fitting procedures used an error weighted least squares fit.
The time evolution of DNA nanoswitch states are modeled using multistep reaction kinetics. On rates are modeled as a two-step process: Unbound Linear→Singly Bound Linear→Looped
Step 1 represents the binding of a free receptor in solution to a ligand on the scaffold (yielding the solution on-rate), Step 2 represents the subsequent binding of this receptor to another ligand on the same scaffold to form a loop (yielding the loop-closure rate).
We additionally used Eyring analysis to fit the temperature dependence of the kinetic rates: […]

streptavidin [4] = biological target: T1, streptavidin; test: DNA nanoswitch gel electrophoresis, desthiobiotin-streptavidin off-rate; format: binding
Procedure: Desthiobiotin experiments were conducted in a similar manner as the biotin experiments with slight modifications. […] The off-rate of the desthiobiotin interaction is much faster than the typical 100 minute gel run time. Noting that once a loop opens in the gel, the reptation of the DNA prevents the loop from closing again, we ran samples for different amounts of time in the gel at 15 V/cm and 4° C., and quantified the fraction looped as a function of running time. In addition to allowing the determination of the desthiobiotin-streptavidin off rate, this gel also allowed us to determine the minimum amount of time required to achieve separation of the looped and unlooped bands in the gel. This enabled the use of the standard quenching technique for measuring desthiobiotin off-rates as described in the previous section; these gels were run at 15 V/cm for 10 minutes in pre-chilled electrophoresis buffer.

[5] = calculated from on-rate and off-rate

For O=C(O)CCP(CCC(=O)O)CCC(=O)O [TCEP], the “time constant of disulfide bond reduction” value [1] was 2.6±0.4 weeks.
In the case of O=C(O)CCCC[C@@H]1SC[C@@H]2NC(=O)N[C@@H]21 [biotin], the “change of off-rate with salt” value (streptavidin [2]; 5 mM to 500 mM at a given temperature) is reported as “less than 2 fold”, the dissociation time (streptavidin [2]; 25° C.) is reported as 148 ± 10 h and the dissociation time (streptavidin [2]; 37° C.) is reported as 11.2 ± 3 h. For the same molecule, the “variation of off-rate with temperature” value (streptavidin [2]; 4° C. to 50° C. at a given salt concentration) was “over 100 fold”, the “off-rates as fast as” value (streptavidin [2]; high temperature) was 40 min and the “affinity of Neutravidin for biotin, weaker than avidin's” value (Neutravidin) was 20 times. The on-rate (streptavidin [3]; 150 mM salt, room temperature) was 4.0±0.7×10^6 M^−1s^−1, the “variation of dissociation kinetics over temperature range” value (streptavidin [3]; 4-50° C.) was ~1,000 fold and the “variation of dissociation kinetics over salt range” value (streptavidin [3]; 25-500 mM) was “about 2 fold”. The “equilibrium enthalpy change, ΔH” value (streptavidin [3]; [5]) was 26.01 ± 0.05 kcal/mol, the “equilibrium free energy change, ΔG^0” value (streptavidin [3]; [5]) was -17.1 ± 0.1 kcal/mol and the dissociation time (streptavidin [3]; physiological salt conditions, 25° C.) was 9.7 ± 0.4 days.
Molecule C[C@@H]1NC(=O)N[C@@H]1CCCCCC(=O)O [desthiobiotin] has an off-rate (streptavidin [4]; 4° C.) of 35.3 ± 7.5 min and an off-rate (streptavidin [4]; room temperature) of 8.6 ± 1.2 min.
